PubChem BioAssay AID624350 (Johns Hopkins Ion Channel Center, 2012)
“And” between values parts separate entries of the source, which are not always exact repeats. Equal entries are not always repeated. The source made the active and inactive calls.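 Rule for the calls: active = over 50% block of the Kir2.1 potassium channel by compound at 30 µM; inactive = the rest.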

What follows are compounds tested against Inward rectifier potassium channel 2 (Mus musculus) (UniProt P35561) (assay: blockers of inward rectifier channel Kir2.1 – cell-based, HEK293, thallium flux, FluxOR fluorescence, dose response (AID 624350)). Conditions: HEK293 Kir2.1, FluxOR thallium flux fluorescence, 20 min.
Inward rectifier potassium channel 2 (Mus musculus), sequence (P35561 whole entry, looked up): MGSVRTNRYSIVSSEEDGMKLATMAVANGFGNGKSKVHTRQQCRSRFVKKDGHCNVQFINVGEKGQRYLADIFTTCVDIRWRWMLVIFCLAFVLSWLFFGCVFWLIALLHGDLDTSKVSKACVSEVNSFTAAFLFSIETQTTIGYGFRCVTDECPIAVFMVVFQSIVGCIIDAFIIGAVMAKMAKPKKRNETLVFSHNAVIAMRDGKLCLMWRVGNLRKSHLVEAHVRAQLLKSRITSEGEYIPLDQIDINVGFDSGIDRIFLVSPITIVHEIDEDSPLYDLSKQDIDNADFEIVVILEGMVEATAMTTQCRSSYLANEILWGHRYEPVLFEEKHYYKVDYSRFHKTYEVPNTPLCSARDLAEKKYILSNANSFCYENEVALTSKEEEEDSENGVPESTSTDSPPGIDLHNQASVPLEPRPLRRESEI

**Q.** Which outcome does the source give for `COCc1nc2ccccc2n1CC(C)C` here?
**A.** inactive

**Q.** With `O=S(=O)(c1ccccc1F)N1CCCc2ccccc21` as the compound, how does the IC50 read?
**A.** 11.2 µM

**Q.** With `O=S(=O)(NCc1cccc2ccccc12)c1ccc(Br)cc1` as the compound, how does the outcome read?
**A.** inactive

**Q.** How did the outcome turn out when `O=S(=O)(c1ccc(Br)cc1)N1CCC(c2ccccc2)CC1` was run?
**A.** inactive

**Q.** Which IC50 does the source give for `O=S(=O)(NCc1ccc(F)c(F)c1)c1ccc(Br)cc1` here?
**A.** 11.3 µM

**Q.** How did the outcome turn out when `Cc1ccc(C)c(OCCCN2CCOCC2)c1` was run?
**A.** inactive

**Q.** For `O=S(=O)(NCc1cccnc1)c1ccc(Br)cc1`, which outcome is on record?
**A.** inactive

**Q.** Which outcome does the source give for `O=S(=O)(NCc1ccco1)c1ccc(Br)cc1` here?
**A.** inactive

**Q.** `c1ccc(Cc2nc3ccccc3n2-c2ccccc2)cc1` was tested. Which IC50 did it give?
**A.** 15 µM

**Q.** Which IC50 does the source give for `O=[N+]([O-])c1ccc(CNS(=O)(=O)c2ccc(Br)cc2)cc1` here?
**A.** 17.8 µM

**Q.** How did the outcome turn out when `COc1ccc(CCNS(=O)(=O)c2ccc(Br)cc2)cc1OC` was run?
**A.** inactive

**Q.** With `CN1CCN(S(=O)(=O)c2ccc(Br)cc2)CC1` as the compound, how does the outcome read?
**A.** inactive

**Q.** `COc1ccc(N2CCN(S(=O)(=O)c3ccc(Br)cc3)CC2)cc1` was tested. Which outcome did it give?
**A.** inactive

**Q.** How did the outcome turn out when `COCc1nc2ccccc2n1-c1ccccc1` was run?
**A.** inactive

**Q.** Which outcome does the source give for `Cc1ccc(C)c(OCCCN2CCCCC2)c1` here?
**A.** inactive

**Q.** For `Cc1ccc(C)c(OCCCNCc2ccccc2)c1`, which IC50 is on record?
**A.** 8.91 µM

**Q.** With `O=S(=O)(c1cccc(F)c1)N1CCCc2ccccc21` as the compound, how does the IC50 read?
**A.** 12.6 µM

**Q.** For `O=S(=O)(NCc1ccncc1)c1ccc(Br)cc1`, which outcome is on record?
**A.** inactive

**Q.** For `CCN(CC)CCCOc1cc(C)ccc1C`, which outcome is on record?
**A.** inactive

**Q.** For `C[C@@H](c1ccccc1)N(Cc1ccccc1)S(=O)(=O)c1ccc(Br)cc1`, which outcome is on record?
**A.** inactive

**Q.** With `O=S(=O)(c1ccc(Br)cc1)N1CCN(c2ccc(Cl)c(Cl)c2)CC1` as the compound, how does the outcome read?
**A.** inactive

**Q.** With `Cc1ccc(C)c(OCCCOCc2ccccc2)c1` as the compound, how does the outcome read?
**A.** inactive

**Q.** With `O=S(=O)(NC1Cc2ccccc2C1)c1ccc(Br)cc1` as the compound, how does the IC50 read?
**A.** 28.4 µM

**Q.** How did the outcome turn out when `O=C(c1ccc(F)cc1)N1CCCc2ccccc21` was run?
**A.** inactive

**Q.** Which IC50 does the source give for `Cc1ccc(C)c(OCCCNCc2ccc(Cl)c(Cl)c2)c1` here?
**A.** 13.4 µM

**Q.** `Cc1ccc(C)c(OCCCNCc2cccc3ccccc23)c1` was tested. Which IC50 did it give?
**A.** 11.2 µM

**Q.** With `Cc1ccc(C)c(OCCCNCCO)c1` as the compound, how does the outcome read?
**A.** inactive

**Q.** Which outcome does the source give for `C[C@@H](NC(=O)c1ccc(Br)cc1)c1ccccc1` here?
**A.** inactive

**Q.** For `O=S(=O)(c1cccc(Br)c1)N1CCCc2ccccc21`, which IC50 is on record?
**A.** 12.6 µM

**Q.** Which IC50 does the source give for `CC(C)Cn1c(Cc2ccccc2)nc2ccccc21` here?
**A.** 28.4 µM

**Q.** How did the outcome turn out when `O=S(=O)(NCCc1ccccc1)c1ccc(Br)cc1` was run?
**A.** inactive

**Q.** How did the outcome turn out when `COCc1nc2ccccc2n1C1CC1` was run?
**A.** inactive

**Q.** How did the IC50 turn out when `Cc1ccc(C)c(OCCCNC[C@@H](C)O)c1` was run?
**A.** inactive

**Q.** How did the outcome turn out when `COCc1nc2ccccc2n1Cc1ccccc1` was run?
**A.** inactive

**Q.** `Cc1ccc(C)c(OCCCNc2ccccc2)c1` was tested. Which outcome did it give?
**A.** inactive

**Q.** With `O=S(=O)(N[C@H]1c2ccccc2C[C@H]1O)c1ccc(Br)cc1` as the compound, how does the outcome read?
**A.** inactive

**Q.** Which outcome does the source give for `O=S(=O)(c1ccc(Br)cc1)N1CCCCC1` here?
**A.** inactive

**Q.** For `c1ccc(Cc2nc3ccccc3n2Cc2ccccc2)cc1`, which IC50 is on record?
**A.** 29.9 µM

**Q.** For `Cc1ccc(C)c(OCCCN(C)Cc2ccccc2)c1`, which IC50 is on record?
**A.** 11.9 µM

**Q.** For `COc1ccccc1CCNS(=O)(=O)c1ccc(Br)cc1`, which IC50 is on record?
**A.** 7.81 µM

**Q.** How did the IC50 turn out when `O=S(=O)(c1ccc(Br)cc1)N1CCCc2ccccc21` was run?
**A.** 15.8 µM and 13.4 µM

**Q.** Which outcome does the source give for `COCc1nc2ccccc2n1CCN1CCOCC1` here?
**A.** inactive

**Q.** For `O=S(=O)(NCc1ccccc1)c1ccc(Br)cc1`, which outcome is on record?
**A.** inactive

**Q.** Which outcome does the source give for `Cc1ccc(C)c(OCCCNC[C@H](C)O)c1` here?
**A.** inactive

**Q.** `C[C@H](NC(=O)c1ccc(Br)cc1)c1ccccc1` was tested. Which outcome did it give?
**A.** inactive

**Q.** With `Cc1ccc(C)c(OCCCNCC2CCCCC2)c1` as the compound, how does the IC50 read?
**A.** 18.9 µM

**Q.** Which IC50 does the source give for `O=S(=O)(c1ccccc1Br)N1CCCc2ccccc21` here?
**A.** 10 µM

**Q.** Which IC50 does the source give for `O=S(=O)(c1ccc(Br)cc1)N1CCc2ccccc21` here?
**A.** 17.9 µM

**Q.** `c1ccc(Cc2nc3ccccc3n2C2CC2)cc1` was tested. Which outcome did it give?
**A.** inactive

**Q.** `CN(Cc1ccccc1)S(=O)(=O)c1ccc(Br)cc1` was tested. Which outcome did it give?
**A.** inactive

**Q.** `O=S(=O)(NCc1cccc(F)c1)c1ccc(Br)cc1` was tested. Which outcome did it give?
**A.** inactive

**Q.** Which IC50 does the source give for `CCN(Cc1ccncc1)S(=O)(=O)c1ccc(Br)cc1` here?
**A.** 23 µM

**Q.** With `Cc1ccc(C)c(OCCCNCCc2ccccc2)c1` as the compound, how does the IC50 read?
**A.** 10.6 µM

**Q.** Which outcome does the source give for `Cc1ccc(C)c(OCCCN(C)CCO)c1` here?
**A.** inactive

**Q.** Which IC50 does the source give for `Cc1ccc(C)c(OCCCNCc2ccco2)c1` here?
**A.** inactive

**Q.** `C[C@@H](NS(=O)(=O)c1ccc(Br)cc1)c1cccc2ccccc12` was tested. Which IC50 did it give?
**A.** 9.46 µM

**Q.** With `O=S(=O)(NCCc1c[nH]c2ccccc12)c1ccc(Br)cc1` as the compound, how does the IC50 read?
**A.** 13.4 µM

**Q.** `O=S(=O)(NCc1ccc(F)cc1F)c1ccc(Br)cc1` was tested. Which IC50 did it give?
**A.** 16.3 µM

**Q.** For `O=S(=O)(NCc1cc(F)cc(F)c1)c1ccc(Br)cc1`, which IC50 is on record?
**A.** 15.6 µM

**Q.** Which outcome does the source give for `O=S(=O)(NCc1ccccn1)c1ccc(Br)cc1` here?
**A.** inactive

**Q.** How did the outcome turn out when `O=S(=O)(NCC(c1ccccc1)c1ccccc1)c1ccc(Br)cc1` was run?
**A.** inactive

**Q.** Which IC50 does the source give for `O=S(=O)(c1ccc(F)cc1)N1CCCc2ccccc21` here?
**A.** 11.9 µM
